Measurements: ChEMBL document CHEMBL3244272, “Folate antagonists. 15. 2,3-Diamino-6-(2-naphthylsulfonyl)quinazoline and related 2,4-diamino-6-[(phenyl and naphthyl)sulfinyl and sulfonyl]quinazolines, a potent new class of antimetabolites with phenomenal antimalarial activity” (J Med Chem, 1979)
Values after ≈ are worked out from the molar mass of the structure shown.

Tests used:
Assay type in all cases: functional
Enterococcus faecalis = assay: Antibacterial activity against Streptococcus faecalis MGH-2 assessed as growth inhibition
Plasmodium berghei [1] = assay: Antimalarial activity against trophozoite-induced Plasmodium berghei infected in mouse assessed as change in mean survival time at 2.5 mg/kg, sc single dose after 72 hrs of infection; settings: route subcutaneous
Pseudomonas aeruginosa = assay: Antibacterial activity against Pseudomonas aeruginosa 28 assessed as growth inhibition
Plasmodium berghei [2] = assay: Antimalarial activity against trophozoite-induced Plasmodium berghei infected in mouse assessed as change in mean survival time at 40 mg/kg, sc single dose after 72 hrs of infection; settings: route subcutaneous
Staphylococcus aureus [3] = assay: Antibacterial activity against Staphylococcus aureus UC-76 assessed as growth inhibition
Staphylococcus aureus [4] = assay: Antibacterial activity against Staphylococcus aureus S18713 assessed as growth inhibition
Plasmodium berghei [5] = assay: Antimalarial activity against trophozoite-induced Plasmodium berghei infected in mouse assessed as change in mean survival time at 10 mg/kg, sc single dose after 72 hrs of infection; settings: route subcutaneous
Plasmodium berghei [6] = assay: Antimalarial activity against trophozoite-induced Plasmodium berghei infected in mouse assessed as change in mean survival time at 5 mg/kg, sc single dose after 72 hrs of infection; settings: route subcutaneous
Shigella sonnei = assay: Antibacterial activity against Shigella sonnei C-10 assessed as growth inhibition
Escherichia coli = assay: Antibacterial activity against Escherichia coli Vogel assessed as growth inhibition
Plasmodium berghei [7] = assay: Antimalarial activity against trophozoite-induced Plasmodium berghei infected in sc dosed mouse assessed as minimum curative dose
Plasmodium berghei [8] = assay: Antimalarial activity against trophozoite-induced Plasmodium berghei infected in mouse assessed as change in mean survival time at 20 mg/kg, sc single dose after 72 hrs of infection; settings: route subcutaneous
[9] = test system: Mycobacterium tuberculosis; assay: Antibacterial activity against Mycobacterium tuberculosis H37Rv assessed as growth inhibition
Plasmodium berghei [10] = assay: Antimalarial activity against trophozoite-induced Plasmodium berghei infected in mouse assessed as change in mean survival time at 80 mg/kg, sc single dose after 72 hrs of infection; settings: route subcutaneous
Plasmodium berghei [11] = assay: Antimalarial activity against trophozoite-induced Plasmodium berghei infected in mouse assessed as change in mean survival time at 320 mg/kg, sc single dose after 72 hrs of infection; settings: route subcutaneous
Plasmodium berghei [12] = assay: Antimalarial activity against trophozoite-induced Plasmodium berghei infected in mouse assessed as change in mean survival time at 160 mg/kg, sc single dose after 72 hrs of infection; settings: route subcutaneous
Plasmodium gallinaceum [13] = assay: Antimalarial activity against cycloguanil-resistant Plasmodium gallinaceum infected in mouse assessed as dose required to suppress parasitemia by 90% compound treated through gavage for 3 days
Plasmodium gallinaceum [14] = assay: Antimalarial activity against cycloguanil-resistant Plasmodium gallinaceum infected in mouse assessed as dose required to suppress parasitemia by 90% compound treated through gavage for 3 days relative to parent strain
Plasmodium falciparum [15] = assay: Antimalarial activity against chloroquine-sensitive, pyrimethamine-resistant Plasmodium falciparum Malayan Camp CH/Q infected in Aotus monkey assessed as dose required to >50% cures compound treated for 7 days
Plasmodium falciparum [16] = assay: Antimalarial activity against chloroquine-resistant, pyrimethamine-sensitive Plasmodium falciparum Vietnam Oak Knoll in Aotus monkey assessed as dose required to >50% cures compound treated for 7 days
Plasmodium berghei [17] = assay: Antimalarial activity against trophozoite-induced Plasmodium berghei infected in mouse assessed as change in mean survival time at 1.25 mg/kg, sc single dose after 72 hrs of infection; settings: route subcutaneous

Structure (SMILES) | MIC (Enterococcus faecalis) [µg/mL] | MST (Plasmodium berghei [1]) [days] | MIC (Pseudomonas aeruginosa) [µg/mL] | MST (Plasmodium berghei [2]) [days] | MIC (Staphylococcus aureus [3]) [µg/mL] | MIC (Staphylococcus aureus [4]) [µg/mL] | MST (Plasmodium berghei [5]) [days] | MST (Plasmodium berghei [6]) [days] | MIC (Shigella sonnei) [µg/mL] | MIC (Escherichia coli) [µg/mL] | MCD (Plasmodium berghei [7]) [mg/kg] | MST (Plasmodium berghei [8]) [days] | MIC [9] [µg/mL] | MST (Plasmodium berghei [10]) [days] | further results
Nc1nc(N)c2cc([S+]([O-])c3ccc(Br)cc3)ccc2n1 (stereo unspecified) | < 0.25 | 3.3 | > 25 | 20.9 | < 0.25 | < 0.25 | 10.1 | 6.7 | > 25 | 2.5 (≈ 6.88 µM) | 10 | 13.6 | – | – | –
Nc1nc(N)c2cc(S(=O)(=O)c3cccc4ccccc34)ccc2n1 | > 25 | – | > 25 | 3.5 | > 25 | > 25 | 0.7 | – | > 25 | > 25 | 80 | 2.9 | > 25 | 5.5 | MST (Plasmodium berghei [11]): 14.4 days; MST (Plasmodium berghei [12]): 14.3 days
Nc1nc(N)c2cc(S(=O)(=O)c3ccc(Br)cc3)ccc2n1 | < 0.25 | 6.5 | > 25 | – | < 0.25 | < 0.25 | 13.1 | 10.3 | > 25 | 2.5 (≈ 6.59 µM) | 10 | 9.9 | – | – | Activity (Plasmodium gallinaceum [13]): <1.6 mg/kg; fold change (FC) (Plasmodium gallinaceum [14]): <3
Nc1nc(N)c2cc([S+]([O-])c3cccc4ccccc34)ccc2n1 (stereo unspecified) | > 25 | – | > 25 | 7.9 | > 25 | > 25 | 1.1 | – | > 25 | > 25 | 80 | 1.9 | – | 13.7 | MST (Plasmodium berghei [11]): 16.4 days; MST (Plasmodium berghei [12]): 15.2 days
Nc1nc(N)c2c(Cl)c(S(=O)(=O)c3ccccc3)ccc2n1 | < 0.25 | – | > 25 | 22.4 | 2 (≈ 5.97 µM) | 2 (≈ 5.97 µM) | – | – | 2 (≈ 5.97 µM) | 2 (≈ 5.97 µM) | 640 | 11.9 | > 25 | – | –
COc1cc(Cc2cnc(N)nc2N)cc(OC)c1OC [TRIMETHOPRIM] | < 0.25 | – | > 25 | – | < 0.25 | < 0.25 | – | – | < 0.25 | < 0.25 | – | – | > 25 | – | –
Nc1nc(N)c2cc(Sc3ccc4ccccc4c3)ccc2n1 | – | – | – | – | – | – | – | – | – | – | – | – | – | – | Activity (Plasmodium gallinaceum [13]): <1.6 mg/kg; Activity (Plasmodium falciparum [15]): 3.125 mg/kg; fold change (FC) (Plasmodium gallinaceum [14]): 0; Activity (Plasmodium falciparum [16]): 1.56 mg/kg
Nc1nc(N)c2cc(S(=O)(=O)c3ccc(F)cc3)ccc2n1 | – | 6.9 | – | – | – | – | 12.9 | 13.6 | – | – | 20 | – | – | – | MST (Plasmodium berghei [17]): 4.1 days; Activity (Plasmodium gallinaceum [13]): 0.6 mg/kg; fold change (FC) (Plasmodium gallinaceum [14]): 3
Nc1nc(N)c2c(Cl)c([S+]([O-])c3ccc(F)cc3)ccc2n1 (stereo unspecified) | < 0.25 | – | > 25 | 20.9 | < 0.25 | 1 (≈ 2.97 µM) | – | – | < 0.25 | < 0.25 | 40 | 4.1 | 2.5 (≈ 7.42 µM) | 27.9 | –
Nc1nc(N)c2cc(Sc3ccc(Br)cc3)ccc2n1 | – | – | – | – | – | – | – | – | – | – | – | – | – | – | Activity (Plasmodium gallinaceum [13]): <1.6 mg/kg; fold change (FC) (Plasmodium gallinaceum [14]): <4
Nc1nc(N)c2cc(Sc3ccc(Cl)c(Cl)c3)ccc2n1 | – | – | – | – | – | – | – | – | – | – | – | – | – | – | Activity (Plasmodium gallinaceum [13]): <0.4 mg/kg; fold change (FC) (Plasmodium gallinaceum [14]): 0
Nc1nc(N)c2cc(Sc3cccc(C(F)(F)F)c3)ccc2n1 [WR-159412] | – | – | – | – | – | – | – | – | – | – | – | – | – | – | Activity (Plasmodium falciparum [15]): 0.39 mg/kg; Activity (Plasmodium falciparum [16]): 0.098 mg/kg
Nc1nc(N)c2c(Cl)c([S+]([O-])c3cccc(C(F)(F)F)c3)ccc2n1 (stereo unspecified) | – | – | – | – | – | – | – | – | – | – | 40 | 0.5 | – | 1.1 | MST (Plasmodium berghei [11]): 1.5 days
Nc1nc(N)c2c(Cl)c(S(=O)(=O)c3cccc(C(F)(F)F)c3)ccc2n1 | < 0.25 | – | > 25 | 0.7 | > 25 | > 25 | 0.5 | – | > 25 | > 25 | 40 | 0.7 | > 25 | 1.1 | MST (Plasmodium berghei [11]): 4.7 days; MST (Plasmodium berghei [12]): 3.7 days
CN(C)c1ccc(Sc2ccc3nc(N)nc(N)c3c2)cc1 | – | – | – | – | – | – | – | – | – | – | – | – | – | – | Activity (Plasmodium gallinaceum [13]): 0.9 mg/kg; Activity (Plasmodium falciparum [15]): 2.5 mg/kg; fold change (FC) (Plasmodium gallinaceum [14]): 0; Activity (Plasmodium falciparum [16]): 1.25 mg/kg
Nc1nc(N)c2cc(S(=O)(=O)c3ccccc3)ccc2n1 | – | 0.3 | – | 12.1 | – | – | 5.1 | 0.3 | – | – | 160 | 7.7 | – | 12.6 | –
Nc1nc(N)c2cc([S+]([O-])c3ccc(Cl)c(Cl)c3)ccc2n1 (stereo unspecified) | < 0.25 | 4.1 | > 25 | 21.9 | > 25 | > 25 | 8.7 | 7.9 | > 25 | > 25 | 10 | 15.9 | – | – | MST (Plasmodium berghei [17]): 1.1 days
Nc1nc(N)c2c(Cl)c([S+]([O-])c3ccc4ccccc4c3)ccc2n1 (stereo unspecified) | < 0.25 | – | > 25 | 23.9 | > 25 | > 25 | – | – | > 25 | > 25 | 5 | 9.3 | > 25 | – | –
Nc1nc(N)c2cc([S+]([O-])c3cccc(-c4ccccc4)c3)ccc2n1 (stereo unspecified) | < 0.25 | 1.1 | > 25 | 18.9 | < 0.25 | < 0.25 | 6.7 | 4.1 | > 25 | > 25 | 40 | 11.1 | – | 22.9 | MST (Plasmodium berghei [17]): 0.5 days
Nc1nc(N)c2cc(S(=O)(=O)c3cccc(C(F)(F)F)c3)ccc2n1 | 0.25 (≈ 0.679 µM) | 1.5 | > 25 | – | 1.5 (≈ 4.07 µM) | 2 (≈ 5.43 µM) | 11.6 | 7.7 | > 25 | > 25 | 40 | 13.9 | 25 (≈ 67.9 µM) | – | MST (Plasmodium berghei [17]): 0.5 days; Activity (Plasmodium falciparum [15]): 1.56 mg/kg; Activity (Plasmodium falciparum [16]): 0.39 mg/kg
Nc1nc(N)c2c(Cl)c(S(=O)(=O)c3ccc4ccccc4c3)ccc2n1 | < 0.25 | – | > 25 | 4.7 | > 25 | > 25 | – | – | > 25 | > 25 | 5 | 0.7 | > 25 | 7.1 | MST (Plasmodium berghei [11]): 13.3 days; MST (Plasmodium berghei [12]): 11.5 days
Cc1cc(S(=O)(=O)c2ccc3nc(N)nc(N)c3c2)ccc1Br | – | – | – | 5.9 | – | – | 0.5 | – | – | – | 80 | 1.5 | – | 10.5 | MST (Plasmodium berghei [11]): 18.9 days; MST (Plasmodium berghei [12]): 17.4 days
Nc1nc(N)c2c(Cl)c([S+]([O-])c3ccccc3Cl)ccc2n1 (stereo unspecified) | < 0.25 | – | > 25 | – | 2 (≈ 5.66 µM) | > 25 | – | – | > 25 | > 25 | 40 | 8.6 | > 25 | – | –
Nc1nc(N)c2c(Cl)c([S+]([O-])c3ccccc3)ccc2n1 (stereo unspecified) | – | – | – | 12.9 | – | – | – | – | – | – | 640 | 8.5 | – | 17.9 | –
Nc1nc(N)c2c(Cl)c(S(=O)(=O)c3ccc(F)cc3)ccc2n1 | < 0.25 | 0.5 | > 25 | 13.4 | 2 (≈ 5.67 µM) | > 25 | 9.3 | 4.1 | > 25 | 10 (≈ 28.3 µM) | 40 | 9.7 | > 25 | 26.9 | MST (Plasmodium berghei [17]): 0.5 days
Nc1nc(N)c2cc([S+]([O-])c3ccc4ccccc4c3)ccc2n1 (stereo unspecified) | < 0.25 | 10.9 | > 25 | – | < 0.25 | < 0.25 | 31.9 | 14.2 | 2.5 (≈ 7.48 µM) | < 0.25 | 20 | – | – | – | MST (Plasmodium berghei [17]): 6.7 days; Activity (Plasmodium gallinaceum [13]): 0.1 mg/kg; Activity (Plasmodium falciparum [15]): 0.78 mg/kg; fold change (FC) (Plasmodium gallinaceum [14]): 0; Activity (Plasmodium falciparum [16]): 0.39 mg/kg
